#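 The compound was tested at five concentrations on cells cultured in 96-well plates, with a 48-hour exposure period. The concentration for 50% growth inhibition is given as GI50. The concentration for full growth arrest is given as TGI.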
# Legend:
# Assay in all cases: NCI tumour cell line growth inhibition, 48 h
# CAKI-1 renal = test system: CAKI-1 renal
# CCRF-CEM leukemia = test system: CCRF-CEM leukemia
# HCT-116 colon = test system: HCT-116 colon
# HOP-92 NSCLC = test system: HOP-92 NSCLC
# HT29 colon = test system: HT29 colon
# NCI-H522 lung = test system: NCI-H522 lung
# SF-539 CNS = test system: SF-539 CNS
# SNB-19 CNS = test system: SNB-19 CNS
# UO-31 renal = test system: UO-31 renal
# TK-10 renal = test system: TK-10 renal
smiles,measurement,setting,value
Cc1c2ccncc2cc2c1[nH]c1ccccc12,TGI,CAKI-1 renal,10.5 µM
same,TGI,CCRF-CEM leukemia,15 µM
same,TGI,HCT-116 colon,7.12 µM
same,TGI,HOP-92 NSCLC,15.2 µM
same,TGI,HT29 colon,31.5 µM
same,TGI,NCI-H522 lung,18.9 µM
same,TGI,SF-539 CNS,5.17 µM
same,TGI,SNB-19 CNS,34.7 µM
same,TGI,UO-31 renal,9.89 µM
Nc1[nH]nc(Nc2ccc(Cl)cc2)c1P(=O)(c1ccccc1)c1ccccc1,TGI,CAKI-1 renal,> 100 µM
same,TGI,CCRF-CEM leukemia,86.1 µM
same,TGI,HOP-92 NSCLC,70.8 µM
same,TGI,HT29 colon,65.2 µM
same,TGI,NCI-H522 lung,48.5 µM
same,TGI,SF-539 CNS,42.6 µM
same,TGI,SNB-19 CNS,92.4 µM
same,TGI,TK-10 renal,> 100 µM
same,TGI,UO-31 renal,> 100 µM
CC(=O)Nc1ccc(C(=O)NN2C(=O)C(Cl)/C2=C/c2ccco2)cc1 (configuration not stated),TGI,CCRF-CEM leukemia,> 100 µM
same,TGI,HCT-116 colon,> 100 µM
same,TGI,HOP-92 NSCLC,> 100 µM
same,TGI,HT29 colon,> 100 µM
same,TGI,NCI-H522 lung,> 100 µM
same,TGI,SF-539 CNS,> 100 µM
same,TGI,SNB-19 CNS,> 100 µM
same,TGI,TK-10 renal,> 100 µM
same,TGI,UO-31 renal,> 100 µM
CC(=O)c1c(C)nc(SSc2nc(C)c(C(C)=O)c(-c3ccc(Cl)cc3)c2C#N)c(C#N)c1-c1ccc(Cl)cc1,GI50,CAKI-1 renal,62.7 µg/mL
same,TGI,CAKI-1 renal,> 150 µg/mL
same,GI50,CCRF-CEM leukemia,> 150 µg/mL
same,TGI,CCRF-CEM leukemia,> 150 µg/mL
same,GI50,HCT-116 colon,94.4 µg/mL
same,TGI,HCT-116 colon,> 150 µg/mL
same,GI50,HT29 colon,> 150 µg/mL
same,TGI,HT29 colon,> 150 µg/mL
same,GI50,SF-539 CNS,47.7 µg/mL
same,TGI,SF-539 CNS,> 150 µg/mL
same,GI50,SNB-19 CNS,78.4 µg/mL
same,TGI,SNB-19 CNS,> 150 µg/mL
same,GI50,TK-10 renal,102 µg/mL
same,TGI,TK-10 renal,> 150 µg/mL
same,GI50,UO-31 renal,82 µg/mL
same,TGI,UO-31 renal,> 150 µg/mL
CC(=O)OCC1OC(n2cc(F)c(=O)[nH]c2=O)C(NC(=O)OCc2ccccc2)C(OC(C)=O)C1OC(C)=O (configuration not stated),TGI,CAKI-1 renal,> 100 µM
same,TGI,CCRF-CEM leukemia,> 100 µM
same,TGI,HCT-116 colon,> 100 µM
same,TGI,HOP-92 NSCLC,> 100 µM
same,TGI,HT29 colon,> 100 µM
same,TGI,NCI-H522 lung,> 100 µM
same,TGI,SF-539 CNS,> 100 µM
same,TGI,SNB-19 CNS,> 100 µM
same,TGI,UO-31 renal,> 100 µM
CCP(=O)(CC)C(Cl)Cl,TGI,CAKI-1 renal,> 100 µM
same,TGI,CCRF-CEM leukemia,> 100 µM
same,TGI,HCT-116 colon,> 100 µM
same,TGI,HOP-92 NSCLC,> 100 µM
same,TGI,HT29 colon,> 100 µM
same,TGI,NCI-H522 lung,> 100 µM
same,TGI,SNB-19 CNS,> 100 µM
same,TGI,TK-10 renal,> 100 µM
same,TGI,UO-31 renal,> 100 µM
COc1cc(C(C)O)c(S(=O)(=O)CC(C)O)nn1 (configuration not stated),TGI,CAKI-1 renal,> 100 µM
same,TGI,CCRF-CEM leukemia,> 100 µM
same,TGI,HCT-116 colon,> 100 µM
same,TGI,HOP-92 NSCLC,> 100 µM
same,TGI,HT29 colon,> 100 µM
same,TGI,NCI-H522 lung,> 100 µM
same,TGI,SF-539 CNS,> 100 µM
same,TGI,SNB-19 CNS,> 100 µM
same,TGI,TK-10 renal,> 100 µM
same,TGI,UO-31 renal,> 100 µM
O=C(N/N=C/c1cc(Cl)cc(Cl)c1[O-])c1ccccc1O.O=C(N/N=C/c1cc(Cl)cc(Cl)c1[O-])c1ccccc1O.[Co+2],TGI,CAKI-1 renal,6.3 µM
same,GI50,HCT-116 colon,0.552 µM
same,TGI,HCT-116 colon,14 µM
same,GI50,HOP-92 NSCLC,0.471 µM
same,TGI,HOP-92 NSCLC,3.18 µM
same,TGI,HT29 colon,17.4 µM
same,TGI,NCI-H522 lung,1.63 µM
same,GI50,SF-539 CNS,0.486 µM
same,TGI,SF-539 CNS,5.68 µM
same,TGI,TK-10 renal,12 µM
same,TGI,UO-31 renal,6.72 µM
O=C1CC2CC3OC3[C@H]3c4cc5c(cc4C(=O)N1C23)OCO5 (some centres not stated),TGI,CAKI-1 renal,> 100 µM
same,TGI,CCRF-CEM leukemia,> 100 µM
same,TGI,HCT-116 colon,> 100 µM
same,TGI,HOP-92 NSCLC,> 100 µM
same,TGI,HT29 colon,> 100 µM
same,TGI,NCI-H522 lung,> 100 µM
same,TGI,SF-539 CNS,> 100 µM
same,TGI,SNB-19 CNS,> 100 µM
same,TGI,TK-10 renal,> 100 µM
same,TGI,UO-31 renal,> 100 µM
